In patent US9346769B2, “Tetrazolones as inhibitors of fatty acid synthase” (Infinity Pharmaceuticals, Inc., priority 2010, dated 2016):
pIC50: −log10 of the molar value.

Molecular target: T1, human FASN (Homo sapiens, UniProt P49327)
T1 construct: was purified from SKBR3 cells using procedures modified from those in Jayakumar et al; endogenous in cells; host or cells: SKBR3 human breast cancer cells (ATCC); Endogenous enzyme purified by ammonium sulfate precipitation and a mono Q column
Assay: FASN Scintillation Proximity Flashplate Assay
Assay type: biochemical
Settings: human FASN purified from SKBR3 cells; unstarred symbols
Experimental: Human FASN protein (SEQ ID NO. 1) was purified from SKBR3 cells using procedures modified from those in Jayakumar et al. PNAS 1995, 92:8695-8699. SKBR3 cells were obtained from ATCC and grown in DMEM high glucose medium supplemented with 10% FBS, 1 μg/mL bovine pancreas insulin, 100 U/mL penicillin and 100 µg/mL streptomycin. The confluent cells were trypsinized and washed three times with PBS buffer before frozen in liquid N2 and stored at −80° C. Frozen cells were thawed on ice and resuspended in lysis buffer (25 mM Tris-HCl, pH 7.0, 15 mM NaCl, 1 mM EDTA, and 1 mM DTT) with protease inhibitors. The cells were lysed by sonication, and the cell debris was removed by centrifugation at 20,000 rpm for 30 min. To the supernatant, neutralized saturated ammonium sulfate solution was added to a final concentration of 35%. The solution was left on ice for 1 hr, and the precipitated proteins were harvested by centrifugation at 20,000 rpm for 30 min. The proteins were redissolved in lysis buffer without NaCl and loaded on a mono Q column. Bound proteins were eluted with a linear gradient of NaCl in lysis buffer. Each fraction was analyzed by SDS-PAGE and FASN NADPH consumption assay. The fractions containing FASN were pooled and concentrated to 2-3 mg/mL. Glycerol was added to 20%, and the protein was frozen in liquid N2 and stored at −80° C.
Acetyl-coenzyme A, malonyl-coenzyme A, NADPH, bovine gamma globulin, and ORLISTAT were purchased from Sigma (St. Louis, Mo.). Tris(2-carboxyethyl) phosphine hydrochloride (TCEP) was purchased from Pierce Biotechnologies (Rockford, Ill.). [^3H]-acetyl-coenzyme A was purchased from Moravek Biochemicals (Brea, CA). FlashPlate™ PLUS phospholipid 96-well scintillant coated microplates were purchased from Perkin Elmer Life and Analytical Sciences (Shelton, CT). The method of the FASN Scintillation Proximity FlashPlate assay is similar to that described in Weiss and Glickman Assay Drug Dev Technol 2003, 1:161-6. In a 96-well polypropylene microplate, a dilution series (typical concentrations 60 nM-1.0 mM) of test compounds were prepared in DMSO followed by a 20-fold dilution into FASN assay buffer (50 mM potassium phosphate, pH 7.0, 1.0 mM EDTA, 0.01% NP-40), of which 5.0 μL each was transferred to a FlashPlate® PLUS 96-well plate and mixed with 35 μL FASN assay buffer plus 0.5 mg/mL bovine gamma globulin and 1 mM TCEP. FASN protein (10 μL, 10 nM) was added per well, and the microplate was incubated at 37° C. for 30 min. 10 μL of 20 mM NADPH was added, and the reaction was initiated by addition of […] substrate mixture to final concentrations of 1 nM FASN, 100 μM acetyl-coenzyme A, 6 μCi [^3H]-acetyl-coenzyme A, 300 μM malonyl-coenzyme A, 2 mM NADPH, 0.5 mg/mL bovine gamma globulin, and 1 mM TCEP in a volume of 100 μL per well. Assay plates were incubated for 2 hr at 37° C. and the reaction was stopped with 2 μL of 2.5 mM stock solution of ORLISTAT in DMSO to ˜50 μM. The plates were read in a Wallac 1450 Microbeta Plus liquid scintillation counter (Perkin Elmer, Waltham, Mass.), and counts per minute (CPM) were collected over 2 min. Each inhibitor well CPM was compared to the maximum FASN enzyme activity (Max) CPM and the background (Min) CPM, as measured by omission of FASN enzyme in the background well. % Inhibition values were calculated, and curves were fitted by a four-parameter logistic function to yield IC50 values:
Compounds were assayed as inhibitors of human FASN using the above-described FASN Scintillation Proximity Flashplate Assay (IC50; nM) or FASN NADPH Consumption Assay (*) (IC50; nM). The corresponding activity of the isolated compound is also provided along with the measured mass (ES^+).

T1 sequence (P49327 whole entry): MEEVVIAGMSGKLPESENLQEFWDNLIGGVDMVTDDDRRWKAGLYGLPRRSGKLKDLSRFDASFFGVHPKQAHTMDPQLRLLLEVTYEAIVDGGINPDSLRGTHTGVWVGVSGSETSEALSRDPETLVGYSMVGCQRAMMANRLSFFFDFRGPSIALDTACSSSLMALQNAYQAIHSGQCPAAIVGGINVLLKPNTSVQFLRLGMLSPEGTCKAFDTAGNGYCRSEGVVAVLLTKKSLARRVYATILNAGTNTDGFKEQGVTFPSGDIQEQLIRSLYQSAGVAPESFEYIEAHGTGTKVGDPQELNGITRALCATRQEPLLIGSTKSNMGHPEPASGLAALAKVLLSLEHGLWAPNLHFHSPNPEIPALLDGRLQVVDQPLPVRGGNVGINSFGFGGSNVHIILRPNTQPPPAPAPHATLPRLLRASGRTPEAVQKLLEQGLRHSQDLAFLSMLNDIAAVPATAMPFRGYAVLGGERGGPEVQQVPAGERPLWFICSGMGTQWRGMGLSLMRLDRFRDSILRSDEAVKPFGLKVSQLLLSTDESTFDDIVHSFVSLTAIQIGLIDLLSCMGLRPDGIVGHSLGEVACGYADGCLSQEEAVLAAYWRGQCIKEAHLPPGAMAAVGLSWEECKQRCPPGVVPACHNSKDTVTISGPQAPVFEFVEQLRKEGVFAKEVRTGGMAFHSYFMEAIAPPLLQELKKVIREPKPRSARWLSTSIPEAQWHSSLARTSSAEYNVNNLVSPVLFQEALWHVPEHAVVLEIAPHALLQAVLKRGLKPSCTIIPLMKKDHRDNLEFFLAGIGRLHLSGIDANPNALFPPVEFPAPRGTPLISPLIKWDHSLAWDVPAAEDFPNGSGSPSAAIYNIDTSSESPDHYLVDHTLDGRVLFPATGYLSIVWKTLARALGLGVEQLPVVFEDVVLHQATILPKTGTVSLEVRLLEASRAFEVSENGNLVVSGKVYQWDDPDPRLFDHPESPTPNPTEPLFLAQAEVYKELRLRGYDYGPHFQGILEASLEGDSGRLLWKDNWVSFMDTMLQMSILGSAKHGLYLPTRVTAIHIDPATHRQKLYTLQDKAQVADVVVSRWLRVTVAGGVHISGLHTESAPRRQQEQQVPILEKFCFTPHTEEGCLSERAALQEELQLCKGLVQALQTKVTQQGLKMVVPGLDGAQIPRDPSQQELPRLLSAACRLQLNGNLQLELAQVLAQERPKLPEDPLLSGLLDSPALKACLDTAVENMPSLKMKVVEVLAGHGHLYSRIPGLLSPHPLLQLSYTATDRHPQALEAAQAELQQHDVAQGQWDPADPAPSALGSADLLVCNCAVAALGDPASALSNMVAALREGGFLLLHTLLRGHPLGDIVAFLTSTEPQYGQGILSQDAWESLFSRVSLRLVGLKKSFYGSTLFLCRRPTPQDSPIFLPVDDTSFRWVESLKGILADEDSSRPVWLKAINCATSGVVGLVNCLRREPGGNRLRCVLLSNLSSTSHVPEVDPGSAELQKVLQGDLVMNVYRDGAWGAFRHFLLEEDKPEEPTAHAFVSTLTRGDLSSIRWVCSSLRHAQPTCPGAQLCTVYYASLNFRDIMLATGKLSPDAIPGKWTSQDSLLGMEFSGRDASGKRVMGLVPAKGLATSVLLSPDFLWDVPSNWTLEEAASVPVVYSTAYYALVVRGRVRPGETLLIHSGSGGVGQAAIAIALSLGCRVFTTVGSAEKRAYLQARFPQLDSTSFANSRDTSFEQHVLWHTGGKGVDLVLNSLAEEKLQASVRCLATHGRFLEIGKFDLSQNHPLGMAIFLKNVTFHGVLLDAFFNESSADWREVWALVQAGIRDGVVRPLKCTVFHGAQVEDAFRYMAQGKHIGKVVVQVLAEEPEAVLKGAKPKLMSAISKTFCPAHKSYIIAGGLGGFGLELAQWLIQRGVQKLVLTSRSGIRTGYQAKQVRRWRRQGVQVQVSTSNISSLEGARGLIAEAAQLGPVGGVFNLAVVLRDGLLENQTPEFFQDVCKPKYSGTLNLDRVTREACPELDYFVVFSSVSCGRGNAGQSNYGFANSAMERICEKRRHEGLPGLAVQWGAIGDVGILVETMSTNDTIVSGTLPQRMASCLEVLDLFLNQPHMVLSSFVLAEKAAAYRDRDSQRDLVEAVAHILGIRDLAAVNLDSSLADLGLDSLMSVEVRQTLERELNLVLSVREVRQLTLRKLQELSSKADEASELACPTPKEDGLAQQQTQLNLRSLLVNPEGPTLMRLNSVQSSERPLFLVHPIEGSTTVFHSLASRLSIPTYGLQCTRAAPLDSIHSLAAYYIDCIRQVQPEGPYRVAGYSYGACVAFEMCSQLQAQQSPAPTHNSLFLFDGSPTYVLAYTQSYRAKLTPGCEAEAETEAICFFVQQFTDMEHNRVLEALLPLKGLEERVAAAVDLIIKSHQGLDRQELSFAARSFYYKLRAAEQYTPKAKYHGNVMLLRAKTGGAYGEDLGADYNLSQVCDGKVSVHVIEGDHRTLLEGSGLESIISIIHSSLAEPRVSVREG

pIC50	Compound
> 7.82	COc1ccc(N(C(=O)n2nnn(-c3ccccc3OC)c2=O)C(C)C)cc1C(=O)OCc1ccccc1
7.00 to 7.82	CCN(C(=O)n1nnn(-c2ccccc2OC)c1=O)c1ccc(C(=O)OCc2ccccc2)cc1
> 7.82	CCN(C(=O)n1nnn(-c2ccccc2OC)c1=O)c1cc(C(=O)O)ccc1OCCc1ccccc1
5.30 to 6.70	COc1ccc(N(C(=O)n2nnn(-c3ccccc3OC)c2=O)C(C)C)cc1C(=O)O
> 7.82	CCN(C(=O)n1nnn(-c2ccccc2OC)c1=O)c1ccc(OC)c(C(=O)OCc2ccccc2)c1
6.70 to 7.00	CCN(C(=O)n1nnn(-c2ccccc2OC)c1=O)c1ccc(OC)cc1
> 7.82	CC(C)N(C(=O)n1nnn(-c2c(F)cccc2F)c1=O)c1ccc(N(S(C)(=O)=O)S(C)(=O)=O)c(C(=O)OCc2ccccc2)c1
> 7.82	O=C(O)c1ccc(N(C(=O)n2nnn(-c3c(F)cccc3F)c2=O)C2CCCCC2)cc1O
7.00 to 7.82	CC(C)N(C(=O)n1nnn(-c2c(F)cccc2F)c1=O)c1cccc(C(=O)O)c1
> 7.82	CC(C)N(C(=O)n1nnn(-c2c(F)cccc2F)c1=O)c1ccc(N)c(C(=O)OCc2ccccc2)c1
> 7.82	CC(C)N(C(=O)n1nnn(-c2c(F)cccc2F)c1=O)c1ccc(NC(=O)OC(C)(C)C)c(C(=O)O)c1
> 7.82	O=C(O)c1cc(N(C(=O)n2nnn(-c3c(F)cccc3F)c2=O)C2CCCCC2)ccc1O
> 7.82	CC(C)N(C(=O)n1nnn(-c2c(F)cccc2F)c1=O)c1ccc(NC(=O)OC(C)(C)C)c(C(=O)OCc2ccccc2)c1
> 7.82	CC(C)N(C(=O)n1nnn(-c2c(F)cccc2F)c1=O)c1ccc(C(=O)O)cc1F
> 7.82	COc1cc(C(=O)O)cc(N(C(=O)n2nnn(-c3c(F)cccc3F)c2=O)C(C)C)c1
> 7.82	CC(C)N(C(=O)n1nnn(-c2c(F)cccc2F)c1=O)c1ccc(C(=O)OCc2ccccc2)cc1Oc1ccccc1
7.00 to 7.82	CCC(CC)N(C(=O)n1nnn(-c2c(F)cccc2F)c1=O)c1cccc(C(=O)O)c1
> 7.82	CC(C)N(C(=O)n1nnn(-c2c(F)cccc2F)c1=O)c1ccc(C(=O)OCc2ccccc2)cc1F
> 7.82	CC(C)N(C(=O)n1nnn(-c2c(F)cccc2F)c1=O)c1ccc(Cl)c(C(=O)O)c1
> 7.82	CCC(CC)N(C(=O)n1nnn(-c2c(F)cccc2F)c1=O)c1cccc(C(=O)OCc2ccccc2)c1
> 7.82	COc1cc(N(C(=O)n2nnn(-c3c(F)cccc3F)c2=O)C2CCCCC2)ccc1C(=O)O
> 7.82	COc1cc(N(C(=O)n2nnn(-c3c(F)cccc3F)c2=O)C(C)C)ccc1C(=O)O

pIC50	Compound
> 7.82	CC(C)N(C(=O)n1nnn(-c2c(F)cccc2F)c1=O)c1ccc(Cl)c(C(=O)OCc2ccccc2)c1
> 7.82	O=C(NCc1ccccc1)c1cccc(N(C(=O)n2nnn(-c3c(F)cccc3F)c2=O)C2CCCCC2)c1
7.00 to 7.82	COc1cc(OC)c(N(C(=O)n2nnn(-c3c(F)cccc3F)c2=O)C(C)C)cc1C(=O)O
7.00 to 7.82	CCN(C(=O)n1nnn(-c2c(Cl)cccc2Cl)c1=O)c1ccc(OC)cc1
> 7.82	CCN(C(=O)n1nnn(-c2c(Cl)cccc2Cl)c1=O)c1ccc(C(=O)O)c(Cl)c1
7.00 to 7.82	CCN(C(=O)n1nnn(-c2c(Cl)cccc2Cl)c1=O)c1ccc(C(=O)OC)cc1
> 7.82	CCN(C(=O)n1nnn(-c2c(Cl)cccc2Cl)c1=O)c1ccc(Cl)c(C(=O)OCc2ccc(OC)cc2)c1
> 7.82	CCN(C(=O)n1nnn(-c2c(Cl)cccc2Cl)c1=O)c1ccc(C(=O)O)cc1Cl
7.00 to 7.82	CCN(C(=O)n1nnn(-c2c(Cl)cccc2Cl)c1=O)c1cccc(C(=O)O)c1
> 7.82	CCN(C(=O)n1nnn(-c2c(Cl)cccc2Cl)c1=O)c1ccc(C(=O)O)cc1
7.00 to 7.82	CCN(C(=O)n1nnn(-c2c(F)cccc2OC)c1=O)c1ccccc1Oc1ccccc1
> 7.82	CCC(C)N(C(=O)n1nnn(-c2c(F)cccc2OC)c1=O)c1cccc(C(=O)O)c1 (centres unmarked)
> 7.82	COc1ccc(N(C(=O)n2nnn(-c3c(F)cccc3OC)c2=O)C2CCCC2)cc1C(=O)O
7.00 to 7.82	CCN(C(=O)n1nnn(-c2c(F)cccc2OC)c1=O)c1ccc(OC)c(C(=O)O)c1
> 7.82	COc1ccc(N(C(=O)n2nnn(-c3c(F)cccc3OC)c2=O)C2CCCC2)cc1C(=O)OCc1ccccc1
7.00 to 7.82	COc1cccc(F)c1-n1nnn(C(=O)N(c2ccccc2)C2CCCCC2)c1=O
> 7.82	CCN(C(=O)n1nnn(-c2c(F)cccc2OC)c1=O)c1ccccc1OCCc1ccccc1
7.00 to 7.82	CCN(C(=O)n1nnn(-c2c(F)cccc2OC)c1=O)c1ccc(C(=O)O)c(OC)c1
> 7.82	COc1ccc(COC(=O)c2cc(N(C(=O)n3nnn(-c4c(F)cccc4OC)c3=O)C(C)C)ccc2OCCc2ccccc2)cc1
5.30 to 6.70	COc1cccc(F)c1-n1nnn(C(=O)N(c2cccc(F)c2)C(C)(C)C)c1=O
> 7.82	COc1ccc(N(C(=O)n2nnn(-c3c(F)cccc3OC)c2=O)C2CCCCC2)cc1C(=O)O
7.00 to 7.82	COc1cccc(F)c1-n1nnn(C(=O)N(c2cccc(C(=O)O)c2)C(C)C)c1=O

pIC50	Compound
7.00 to 7.82	COc1ccc(C(=O)OCc2ccccc2)cc1N(C(=O)n1nnn(-c2c(F)cccc2OC)c1=O)C(C)C
> 7.82	COc1ccc(C(=O)O)cc1N(C(=O)n1nnn(-c2c(F)cccc2OC)c1=O)C(C)C
5.30 to 6.70	COc1cccc(F)c1-n1nnn(C(=O)N(CC(C)(C)C)c2cccc(C(=O)O)c2)c1=O
> 7.82	COc1cccc(F)c1-n1nnn(C(=O)N(c2ccccc2)C2CCCC2)c1=O
7.00 to 7.82	COc1cccc(F)c1-n1nnn(C(=O)N(c2ccc(OCCc3ccccc3)c(C(=O)O)c2)C(C)C)c1=O
7.00 to 7.82	CCN(C(=O)n1nnn(-c2c(F)cccc2OC)c1=O)c1cc(C(=O)O)ccc1OC(C)C
5.30 to 6.70	CCN(C(=O)n1nnn(-c2c(F)cccc2OC)c1=O)c1cc(Oc2ccc(C(=O)OCc3ccccc3)cc2)ccc1C
> 7.82	CCN(C(=O)n1nnn(-c2c(F)cccc2OC)c1=O)c1cccc(Oc2cccc(C(=O)O)c2)c1
5.30 to 6.70	COc1cccc(F)c1-n1nnn(C(=O)N(c2cccc(C(=O)O)c2)C(C)(C)C)c1=O
7.00 to 7.82	CCN(C(=O)n1nnn(-c2c(F)cccc2OC)c1=O)c1cc(Oc2ccc(C(=O)O)cc2)ccc1C
> 7.82	COc1ccc(N(C(=O)n2nnn(-c3c(F)cccc3OC)c2=O)C(C)C)cc1C(=O)OCc1ccccc1
7.00 to 7.82	COc1ccc(N(C(=O)n2nnn(-c3c(F)cccc3OC)c2=O)C(C)C)cc1C(=O)O
> 7.82	COc1cccc(F)c1-n1nnn(C(=O)N(c2cccc(C(=O)OCc3ccccc3)c2)C2CC2)c1=O
> 7.82	CCN(C(=O)n1nnn(-c2c(F)cccc2OC)c1=O)c1cc(C(=O)O)ccc1OCCc1ccccc1
7.00 to 7.82	COc1cccc(F)c1-n1nnn(C(=O)N(c2ccccc2)C2CCOCC2)c1=O
> 7.82	CCCCOc1ccc(C(=O)O)cc1N(CC)C(=O)n1nnn(-c2c(F)cccc2OC)c1=O
7.00 to 7.82	COc1cccc(F)c1-n1nnn(C(=O)N(CC(C)(C)C)c2cccc(C(=O)OCc3ccccc3)c2)c1=O
5.30 to 6.70	COc1cccc(F)c1-n1nnn(C(=O)N(c2cccc(C(=O)OCc3ccccc3)c2)C(C)(C)C)c1=O
> 7.82	CCN(C(=O)n1nnn(-c2c(F)cccc2OC)c1=O)c1ccccc1
> 7.82	CCC(C)N(C(=O)n1nnn(-c2c(F)cccc2OC)c1=O)c1cccc(C(=O)OCc2ccccc2)c1 (centres unmarked)
> 7.82	COc1ccc(C(=O)O)cc1N(C(=O)n1nnn(-c2c(F)cccc2OC)c1=O)C1CCCCC1
